Measured values: patent publication US10576096B2, “Tumor-selective combination therapy” (priority 2013, dated 2020)
Where “and” joins values, the source holds several entries; their conditions need not be identical. Identical values can stand only once.

Legend:
[1] = tested on: A549 NSCLC cells or MiaPaCa-2 pancreatic cancer cells; test: Sensitivity enhancement: PARP1 inhibitors combined with β-lapachone or DNQ, relative survival; format: cell-based, human; conditions: 10 = one log kill, 100 = two logs kill; for Sensitivity Enhancement (change in survival) with Deoxynyboquinone (DNQ): nontoxic DNQ (0.02 μM A549, 0.025 μM MiaPaca-2) + optimal dose (15 μM) of PARP1 inhibitor; for Sensitivity Enhancement (change in survival) with β-Lapachone: nontoxic β-lapachone (3 μM A549, 2 μM Mia Paca2) + optimal dose (15 μM) of PARP1 inhibitor
Experimental: Mia PaCa-2 cells were treated for 2 hours with the inhibitors noted in FIG. 30 and then with DNQ+the inhibitors (all at 15 μM) for 2 hours.

[2] = tested on: A549 and Mia PaCa-2 cells; test: AG014699 alone, lethality in BRCA1 wild-type cancer cells; format: cell-based; conditions: drug alone
Text: FIGS. 33A-D. AG014699 enhances the NQO1-dependent lethality of ß-lapachone in A549 NSCLC cells.
AG014699 enhances the NQO1-dependent lethality of ß-lapachone in A549 NSCLC cells (FIG. 33).

[3] = tested on: BRCA1−/− CAPAN-1 cells; test: AG014699 alone, synthetic lethality control; format: cell-based
[4] = tested on: PARP1; test: PAR formation (PARP1 inhibition) in cells treated with NQO1 bioactivatable drug plus inhibitor; format: cell-based; conditions: inhibitors at 15 μM
[5] = in vivo; conditions: NOD/SCID, mouse, iv
[6] = tested on: NOD/SCID mice injected with 3LL-Luc cells; test: DNQ derivatives pilot study of maximum tolerated dose (MTD); conditions: 3 NOD/SCID mice
[7] = tested on: breast cancer cells; test: IB-DNQ (DNQ87) lethality in breast cancer cells; format: cell-based; conditions: NQO1-dependent
Text: It is effective against breast cancer cells in an NQO1-dependent manner, as well as triple-negative breast cancer cells (A-F, for various cell types).
Unlike β-lapachone (ß-lap), efficacy of DNQ87 increases in an NQO1-dependent manner and the therapeutic window is larger (FIG. 14). […] (C) PARP1 hyperactivation caused by DNQ87 exposure measured by PAR-PARP1 formation, highlighted by μ-calpain-mediated p53 cleavage (C) and atypical cleavage of PARP1 to ^˜60 kDa proteolytic fragments during cell death (D). DNQ87 also causes DNA lesions (DNA double strand breaks) in a delayed manner, monitored by gamma-H2AX, phosphorylation of ATM at ser1981, and phosphorylation of DNA-PKcs at site Thr1892 (FIG. 16).

[8] = tested on: Mia Paca2 pancreatic cancer cells; test: Methoxyamine alone: relative survival and ATP loss; format: cell-based
Experimental: FIGS. 20A-C. Determination of lethal vs. sublethal doses of methoxyamine (MeOX or MX, as indicated); A, MeOX with β-lapachone; B, MeOX; C, MeOX.
(§1) B and C, Methoxyamine (MeOX) is an AP-site modifying chemical that is nontoxic to >100 mM as measured by relative survival and ATP loss. Optimal concentrations in combination with NQO1 bioactivatable drugs are between 6-12 mM. FIG. 21 illustrates Proof of Principle studies. A. Methoxyamine (MeOX) augments ß-lapachone ß-lap)-induced lethality in MiaPaca2 pancreatic cancer cells. B. Addition of MeOX modifies AP sites and therefore decreases signal of AP site formation in ß-lap+MeOX exposed cells. MeOX dose was 12 mM, ß-lap Dose was 6 μM. C,D. XRCC1 is a scaffolding protein that enables base excision repair (BER). Elimination of XRCC1 causes elevated AP sites and DNA single strand breaks, at which PARP1 can bind and become activated/hyperactivated. Knockdown of XRCC1 (C) enhances the lethality of ß-lapachone treatment.

[9] = tested on: Mia Paca2 pancreatic cancer cells; test: Methoxyamine plus ß-lapachone lethality (colony forming assays); format: cell-based; conditions: nonlethal doses of methoxyamine
Experimental: FIGS. 9A-F. Methoxyamine (MeOX) enhances β-lap-induced NQO1-driven lethality. Mia Paca-2 cells were treated with indicated doses of β-lap+/−MeOX (12 mM), or β-lap alone for 2 hours. Endpoints examined: (A) Colony forming assays show synergy of MeOX+ß-lap; (B) MeOX treatment modifies AP sites induced by β-lap in Mia Paca-2 cells; (C) MeOX enhances β-lap-induced ATP loss; (D) MeOX blocks ATP recovery after sublethal β-lap doses; (E) β-lap+MeOX co-treatment enhances γH2AX foci formation. […] Dicoumarol (DIC, 50 μM, 2 h) blocked synergy.
as §1

[10] = tested on: Mia PaCa-2 cells; test: ß-lapachone lethal vs. sublethal doses, 2 h treatment; format: cell-based; conditions: listed as ß-lapachone
Experimental: MeOX, 12 mM; Dicoumarol, NQO1 inhibitor, 50 μM; ß-lapachone doses, indicated or 2 μM. For Mia Paca2 cells, 2-2.5 μM is sublethal, 6 μM is lethal. H2O2 dose was 500 μM, 2 h. All treatments were 2 h in duration. Cells were treated 2× with MeOX, as a 2 h pretreatment and then for 2 h in combination with ß-lap where applicable.
Addition of Methoxyamine (MeOX) prevents ATP recovery responses in ß-lap-treated Mia PaCa-2 cells at lethal and sublethal doses (FIG. 24). Lethal doses of ß-lapachone were 6 and 4 μM, whereas 3.0 and 2.5 μM are sublethal doses of ß-lapachone (ß-lap).

[11] = tested on: A549 NSCLC cells; test: ß-lapachone nontoxic vs. lethal dose, 2 h; format: cell-based, human
Experimental: FIGS. 46A-B. DNA damage via combinatorial treatment. (A) A549 NSCLC cells were pre-treated with or without Rucaparib (AG014699) and then exposed to a nontoxic dose of ß-lapachone (3 μM) at the concentrations indicated with or without the same PARP1 inhibitor. Cells were also exposed to a lethal dose of ß-lapachone (8 μM). Cells were then analyzed by neutral comet assays and DNA damage graphed in (B).
A459 NSCLC cells were pretreated with 15 μM AG014699 for 2 hours, then exposed to the same concentration of AG014699+various concentrations of DNQ87 for 2 hours as indicated (FIG. 45). Cells were then washed free of drug and relative survival performed as previously described (Huang et al., Cancer Res., 2012). Cells treated in this manner by nontoxic doses of ß-lap show enhanced DNA lesion formation, equivalent to DNA lesions formed by a lethal dose of ß-lap (8 μM, 2 hours) (FIG. 46).

[12] = tested on: MIA PaCa-2 tumor xenografts; test: Antitumor efficacy in tumor xenografts; format: in vivo, mice; conditions: β-lap-HPβ-CD at 20 or 30 mg/kg, iv
Experimental: (A) Body weight changes of mice bearing orthotopic MIA PaCa-2 tumors. (B) Kaplan-Meier survival for pancreatic antitumor efficacy experiments described in (A). Log-rank analyses were performed comparing survival curves (***p<0.0001) for HPβ-CD vs. β-lap-HPβ-CD at 20 or 30 mg/kg, iv. Results are combined survival data from three similar experiments. (C) Bioluminescent images (BLI) of mice bearing spleen-implanted pancreas cancers before and after treatment with HPβ-CD or β-lap-HPβ-CD (Arq761) at 20 or 30 mg/kg, iv. (D) Quantification of pancreatic tumor burden. BLI (photons per second) were determined before and 12 days post-therapy with HPβ-CD or β-lap-HPβ-CD at 20 or 30 mg/kg, iv. Results are means, +SE (n=5). Student's t tests (***p<0.005) were performed comparing HPβ-CD vs. β-lap-HPβ-CD at 20 or 30 mg/kg, iv. V, Vehicle (HPβ-CD).
Altering BER or SSB repair can enhance NQO1 bioactivatable drug efficacy in a tumor-selective manner. siRNA-mediated knockdown of the Ogg1 glycosylase renders s-lap-treated pancreatic cancer cells resistant to ß-lapachone (FIG. 6), however NQO1 bioactivatable drugs cause SSBs and base lesions in a tumor-specific manner, thus they can be used to make DNA repair inhibitors tumor-selective (FIG. 7). PARP1 inhibitors synergize with NQO1 bioactivatable drugs for enhanced efficacy in NQO1+ cancer cells, such as pancreatic cancer cells (FIG. 8). […]

[13] = target: NQO1 (Homo sapiens, UniProt P15559); conditions: in two minutes; cited from earlier work
Sequence of NQO1 (P15559 whole entry): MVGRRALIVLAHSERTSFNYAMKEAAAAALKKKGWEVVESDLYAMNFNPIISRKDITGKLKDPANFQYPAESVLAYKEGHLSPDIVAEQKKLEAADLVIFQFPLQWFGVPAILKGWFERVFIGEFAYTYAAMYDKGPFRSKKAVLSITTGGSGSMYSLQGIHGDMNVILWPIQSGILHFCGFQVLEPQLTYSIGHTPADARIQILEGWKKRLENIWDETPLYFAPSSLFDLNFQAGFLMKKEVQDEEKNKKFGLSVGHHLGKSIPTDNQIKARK

## C[C@]1(c2nc3c(C(N)=O)cccc3[nH]2)CCCN1 [ABT-888, Veliparib]
[1]
  Sensitivity Enhancement (change in survival) with Deoxynyboquinone (DNQ): 15
  Sensitivity Enhancement (change in survival) with β-Lapachone: 10

## CN(C)Cc1ccc(-c2nc3cccc4c3n2CCNC4=O)cc1 [AG14361]
[1]
  Sensitivity Enhancement (change in survival) with Deoxynyboquinone (DNQ): 10
  Sensitivity Enhancement (change in survival) with β-Lapachone: 5

## CNCc1ccc(-c2[nH]c3cc(F)cc4c3c2CCNC4=O)cc1 [AG-014699, Rucaparib]
[1]
  Sensitivity Enhancement (change in survival) with Deoxynyboquinone (DNQ): 100
  Sensitivity Enhancement (change in survival) with β-Lapachone: 10
[2]
  response of BRCA1 wild-type cells to the PARP1 inhibitor alone: completely resistant
[3]
  lethality of drug alone: synthetic lethality

## O=C(c1cc(Cc2n[nH]c(=O)c3ccccc23)ccc1F)N1CCN(C(=O)C2CC2)CC1 [AZD2281, Olaparib]
[1]
  Sensitivity Enhancement (change in survival) with Deoxynyboquinone (DNQ): 20
  Sensitivity Enhancement (change in survival) with β-Lapachone: 10

## NC(=O)c1ccc(I)c([N+](=O)[O-])c1 [BSI-201, Iniparib]
[1]
  Sensitivity Enhancement (change in survival) with Deoxynyboquinone (DNQ): 4
  Sensitivity Enhancement (change in survival) with β-Lapachone: 3
[4]
  inhibition of PAR formation: not an efficacious PARP1 inhibitor

## Cc1cc(=O)[nH]c2c1C(=O)c1c(C)cc(=O)n(CCC(C)(C)C)c1C2=O [Compound 9-251]
[5]
  MTD at 5 injections, 1x every other day: 20 mg/kg
[6]; 20 mg/kg
  Dead mice (5 IV.): 0

## CCCn1c2c(c(C)cc1=O)C(=O)c1c(C)cc(=O)[nH]c1C2=O [Compound 10-41]
[5]
  MTD at 5 injections, 1x every other day: 7 mg/kg
[6]; 15 mg/kg
  Dead mice (5 IV.): 3

## Cc1cc(=O)[nH]c2c1C(=O)c1c(C)cc(=O)n(CC(C)C)c1C2=O [Compound 87]
[7]
  effective doses relative to ß-lapachone and DNQ: works at much lower doses versus ß-lapachone and at doses equivalent to the parental DNQ compound
[5]
  MTD at 5 injections, 1x every other day: ~16 mg/kg
[6]; 14 mg/kg
  Dead mice (5 IV.): 0

## CCc1cc(=O)n(C)c2c1C(=O)c1c(C)cc(=O)[nH]c1C2=O [Compound 107]
[5]
  MTD at 5 injections, 1x every other day: 8 mg/kg
[6]; 10 mg/kg
  Dead mice (5 IV.): 1

## O=c1[nH]cnc2c1ncn2[C@@H]1O[C@H](CO)[C@@H](O)[C@H]1O [INO-1001]
[1]
  Sensitivity Enhancement (change in survival) with Deoxynyboquinone (DNQ): 10
  Sensitivity Enhancement (change in survival) with β-Lapachone: 7

## CON [Methoxyamine, methoxyamine]
[8]
  optimal concentration in combination with NQO1 bioactivatable drugs: 6 to 12 mM
[8]; measured by relative survival and ATP loss
  nontoxic concentration: > 100 mM
[9]
  lethality in combination with ß-lapachone: synergistic lethality

## CC1(C)CCC2=C(O1)c1ccccc1C(=O)C2=O [β-Lapachone, β-lapachone]
[10]
  sublethal dose: 2 to 2.5 µM and 3.0 µM and 2.5 µM
[11]
  nontoxic dose: 3 µM
[11]; 2 hours
  lethal dose: 8 µM
[12]
  antitumor efficacy: significant antitumor efficacy
[13]
  superoxide generated per mole of compound: ~120 mol
